Assay results from patent publication US20260183297A1, “SELECTION OF PATIENTS FOR THE TREATMENT OF FADS1-MEDIATED DISEASES OR DISORDERS USING FADS-1 INHIBITORS” (AMGEN INC., priority 2022, published 2026).
“Also recorded” adds a separate entry of the source. Marks after values point to notes of the source that are not given here.

What was measured:
[1] = Plasma PUFA measurement (LC-MS/MS); type: in vivo, mouse; conditions: for FADS1 activity 20:4n-6/20:3n-6 / FADS2 activity 18:3n-6/18:2n-6: DIO mice plasma ratio; for FADS1 activity 20:4n-6/20:3n-6 / FADS2 activity 18:3n-6/18:2n-6 / Adrenic acid 22:4 n-6 / Alpha-Linolenic acid 18:3 n-3 / Arachidonic acid 20:4 n-6 / Dihomo-gamma-Linolenic acid 20:3 n-6 / Docosahexaenoic acid 22:6 n-3 / Eicosapentaenoic acid 20:5 n-3 / Eicosatetraenoic acid 20:4 n-3 / Gamma-Linoleic acid 18:3 n-6 / Linoleic acid 18:2 n-6: mean ± SD; for Adrenic acid 22:4 n-6 / Alpha-Linolenic acid 18:3 n-3 / Arachidonic acid 20:4 n-6 / Dihomo-gamma-Linolenic acid 20:3 n-6 / Docosahexaenoic acid 22:6 n-3 / Eicosapentaenoic acid 20:5 n-3 / Eicosatetraenoic acid 20:4 n-3 / Gamma-Linoleic acid 18:3 n-6 / Linoleic acid 18:2 n-6: DIO mice plasma; for Adrenic acid AdA 22:4 n-6 / Arachidonic acid AA 20:4 n-6 / Decosahexaenoic acid DHA 22:6 n-3 / Dihomo-γ-Linolenic acid DGLA 20:3 n-6 / Eicosapentaenoic acid EPA 20:5 n-3 / Eicosatetraenoic acid ETA 20:4 n-3 / Linoleic acid LA 18:2 n-6 / α-Linolenic acid ALA 18:3 n-3 / γ-Linoleic acid GLA 18:3 n-6: plasma of Compound A-treated mice; for FADS1 activity AA/DGLA 20:4n-6/20:3n-6 / FADS2 activity GLA/LA 18:3n-6/18:2n-6: plasma ratio, Compound A-treated mice
Protocol: Ten microliter of plasma or PUFA standards diluted in surrogate matrix (60 g/l bovine serum albumin in Dulbecco's phosphate-buffered saline [DPBS]) were mixed with 10 μl of ALA-d14 as the internal stand in a 96-well plate. 100 μl of 2N NaOH was added to the mixture for subsequent saponification at 65° C. for 1 hour. The mixture was then acidified with 50 μl of formic acid followed by two consecutive 500 μl hexane extractions. The organic extracts from the two extractions were combined and the solvent was evaporated under nitrogen gas. […] The PUFA peak areas were quantified by using the Analyst software (SCIEX, Framingham, MA).

[2] = Chronic FADS1 inhibition study in DIO mice (body weight, food intake); type: in vivo, mouse; conditions: for lower body weight relative to vehicle-treated mice: 54 days
Protocol: Body weight was measured daily and used for dosing calculations. A 4-hour fasted retro-orbital blood sample was collected at baseline and day 46 and used for insulin, cholesterol, and triglyceride analysis. A 3-day average food consumption was measured on days 39-41. All animals received 0.1 ml of 2 mM ^13C5-DGLA by IP injection 23.5 hours after the last PO gavage with the different treatment to allow for 30 minutes of exposure prior to necropsy to determine the residual in vivo FADS1 activity.

[3] = Biomarker analysis of tissue and plasma samples (Luminex: adiponectin, leptin, PAI-1, MCP-1); type: in vivo, mouse; conditions: DIO mice, 30 mg/kg
Protocol: Frozen liver and adipose tissue samples were powdered with stainless steel Bessman Tissue Pulverizers (Spectrum Laboratory Products, Gardena, CA) per the manufacturer's instructions and the resulting tissue powders were stored in cryotubes at −80° C. until extraction. A portion of each powdered tissue sample was extracted using an in-house protein extraction buffer (50-mM Tris buffer, pH 7.4, 0.1 M NaCl and 0.1% Triton X-100) containing a protease inhibitor cocktail (Millipore Sigma, Burlington, MA). Samples were homogenized with a MagNA Lyser (Roche Diagnostics, Indianapolis, IN) for 30 seconds at 6500 rpm, placed at 4° C. for 30 minutes and then spun in a refrigerated microcentrifuge at 10,000 rpm for 10 minutes. The resulting supernatants were removed to clean 1.5 ml microfuge tubes and spun again at 14,000 rpm for 15 minutes. The final supernatants were aliquoted into labeled cluster tubes and protein concentrations were determined using a standard BCA Protein Assay (Thermo Fisher Scientific, Waltham, MA) prior to storage at −80° C.
Separate aliquots of tissue protein extracts and terminal plasma samples were used to quantify levels of various analytes. Multiple adipokines and hormones (MCP-1, leptin, insulin, and PAI-1) were assessed using a multiplex mouse-specific Luminex assay while adiponectin was evaluated using a single-plex mouse-specific Luminex assay (Millipore Sigma, Burlington, MA). All the commercial assays were performed per the manufacturer's instructions. Data were acquired on a FlexMap 3D (Luminex Corporation, Austin. TX). Tissue protein expression levels were normalized per mg of total protein.

[4] = Tissue endocannabinoid measurement (2-AG, AEA); type: in vivo, mouse; conditions: liver and ING WAT, DIO mice, 30 mg/kg
Protocol: Approximately 200 mg of tissue per sample were used for endocannbabinoid extraction. To each frozen tissue sample, 10 μl of ice-cold 100 mM butylated hydroxytoluene (BHT; in methanol) and 0.5 ml of 100 nM AEA-d8 (in water) were added. Tissue sample solution with BHT were immediately homogenized using TissueLyser (QIAGEN, Germantown. MD) for 3 minutes at 30 Hz, followed by two consecutive 1.25 ml of ice-cold ethyl acetate:hexane (9:1) extraction. The pooled extracts were dried to complete dryness under nitrogen gas. Dried samples were redissolved in 80% acetonitrile and subjected to LC/MS analysis. 10 μl of sample was injected onto a Kinetex C18 2.1×100 mm, 2.6 μm column (Phenomenex, Torrance, CA). Mobile phase A is 0.2% acetic acid in water and mobile phase B is 0.1% formic acid in acetonitrile. The LC gradient was a 7-minute long method at a flow rate of 0.2 ml/minute consisting of an isocratic period from 0 to 1 minute at 75% B, followed by a gradient from 75 to 100% from 1 to 4 minutes, and 100 to 75% B from 4 to 7 minutes. The analyte peak areas were quantified using the Analyst software (SCIEX, Framingham MA).

[5] = Fatty acid concentration and composition of plasma lipid subfractions (GC) of Compound A-treated DIO mice; type: in vivo; conditions: DIO mouse plasma, 30 mg/kg, mean

## COc1ccn2c(=O)c(-c3cnn(CC(F)(F)C(F)(F)F)c3)c(C(F)(F)F)nc2c1 [Compound A, 8-methoxy-3-(1-(2,2,3,3,3-pentafluoropropyl)-1H-pyrazol-4-yl)-2-(trifluoromethyl)-4H-pyrido[1,2-a]pyrimidin-4-one]
[1]; 10 mg kg^−1, 46 or 54 days
  FADS1 activity 20:4n-6/20:3n-6: 0.06 ± 0.01
  FADS2 activity 18:3n-6/18:2n-6: 0.018 ± 0.002
  Adrenic acid 22:4 n-6: 1.0 ± 0.1 µg/mL
  Alpha-Linolenic acid 18:3 n-3: 0.9 ± 0.3 µg/mL
  Arachidonic acid 20:4 n-6: 16.1 ± 3.2 µg/mL
  Dihomo-gamma-Linolenic acid 20:3 n-6: 281.3 ± 34.6 µg/mL
  Docosahexaenoic acid 22:6 n-3: 93.5 ± 11.8 µg/mL
  Eicosapentaenoic acid 20:5 n-3: 0.3 ± 0.1 µg/mL
  Eicosatetraenoic acid 20:4 n-3: 2.5 ± 0.5 µg/mL
  Gamma-Linoleic acid 18:3 n-6: 3.4 ± 0.4 µg/mL
  Linoleic acid 18:2 n-6: 198.5 ± 10.5 µg/mL
[1]; 30 mg kg^−1, 46 or 54 days
  FADS1 activity 20:4n-6/20:3n-6: 0.05 ± 0.01
  FADS2 activity 18:3n-6/18:2n-6: 0.014 ± 0.003
  Adrenic acid 22:4 n-6: 0.8 ± 0.1 µg/mL
  Alpha-Linolenic acid 18:3 n-3: 0.7 ± 0.2 µg/mL
  Arachidonic acid 20:4 n-6: 12.5 ± 3.0 µg/mL
  Dihomo-gamma-Linolenic acid 20:3 n-6: 242.3 ± 23.4 µg/mL
  Docosahexaenoic acid 22:6 n-3: 78.2 ± 11.6 µg/mL
  Eicosapentaenoic acid 20:5 n-3: 0.3 ± 0.1 µg/mL
  Eicosatetraenoic acid 20:4 n-3: 1.9 ± 0.4 µg/mL
  Gamma-Linoleic acid 18:3 n-6: 2.8 ± 0.5 µg/mL
  Linoleic acid 18:2 n-6: 196.5 ± 24.6 µg/mL
[1]; 10 mg/kg
  Adrenic acid AdA 22:4 n-6: 1.0 ± 0.1 µg/mL
  Arachidonic acid AA 20:4 n-6: 16.1 ± 3.2 µg/mL
  Decosahexaenoic acid DHA 22:6 n-3: 93.5 ± 11.8 µg/mL
  Dihomo-γ-Linolenic acid DGLA 20:3 n-6: 281.3 ± 34.6 µg/mL
  Eicosapentaenoic acid EPA 20:5 n-3: 0.3 ± 0.1 µg/mL
  Eicosatetraenoic acid ETA 20:4 n-3: 2.5 ± 0.5 µg/mL
  Linoleic acid LA 18:2 n-6: 198.5 ± 10.5 µg/mL
  α-Linolenic acid ALA 18:3 n-3: 0.9 ± 0.3 µg/mL
  γ-Linoleic acid GLA 18:3 n-6: 3.4 ± 0.4 µg/mL
  FADS1 activity AA/DGLA 20:4n-6/20:3n-6: 0.06 ± 0.01
  FADS2 activity GLA/LA 18:3n-6/18:2n-6: 0.018 ± 0.002
[1]; 30 mg/kg
  Adrenic acid AdA 22:4 n-6: 0.8 ± 0.1 µg/mL
  Arachidonic acid AA 20:4 n-6: 12.5 ± 3.0 µg/mL
  Decosahexaenoic acid DHA 22:6 n-3: 78.2 ± 11.6 µg/mL
  Dihomo-γ-Linolenic acid DGLA 20:3 n-6: 242.3 ± 23.4 µg/mL
  Eicosapentaenoic acid EPA 20:5 n-3: 0.3 ± 0.1 µg/mL
  Eicosatetraenoic acid ETA 20:4 n-3: 1.9 ± 0.4 µg/mL
  Linoleic acid LA 18:2 n-6: 196.5 ± 24.6 µg/mL
  α-Linolenic acid ALA 18:3 n-3: 0.7 ± 0.2 µg/mL
  γ-Linoleic acid GLA 18:3 n-6: 2.8 ± 0.5 µg/mL
  FADS1 activity AA/DGLA 20:4n-6/20:3n-6: 0.05 ± 0.01
  FADS2 activity GLA/LA 18:3n-6/18:2n-6: 0.014 ± 0.003
[1]; plasma, Compound A-treated mice (Table 6.1)
  decrease of AA/DHA ratio: five-fold
[2]; 10 mg/kg daily oral
  lower body weight relative to vehicle-treated mice: 17.9%
[2]; 30 mg/kg daily oral
  lower body weight relative to vehicle-treated mice: 21.1%
[2]; 10 and 30 mg/kg daily oral
  food intake: without affecting food intake; also recorded: No significant differences
[3]; EPI WAT
  adiponectin levels: elevated
[3]; EPI and ING WAT
  MCP-1 levels: trends towards lower
  PAI-1 levels: trends towards lower
[3]; plasma, EPI and ING WAT
  leptin levels: decreased
[4]
  endocannabinoid (2-AG, AEA) levels: Decreased levels of endocannabinoids
[5]; Cholesterol ester
  C20:4n6 concentration, Cholesterol ester: 72.4*** μg mL^−1
[5]; Phospholipids
  C16:1n7t concentration, Phospholipids: 1.2 µg/mL
[5]; Total lipids
  C16:1n7t concentration, Total: 3.0 µg/mL
  C20:2n6 concentration, Total: 9.9 µg/mL
  C24:0 concentration, Total: 1.9 µg/mL
